{
  "source": "patent US12187713B2",
  "about": "“Immunomodulators, compositions and methods thereof” (Betta Pharmaceuticals Co., Ltd, priority 2019, dated 2025)",
  "data": [
    {"biological_target": "PD-1/PD-L1 (Homo sapiens (Human), UniProt Q9NZQ7)", "sequence (Q9NZQ7 19-238)": "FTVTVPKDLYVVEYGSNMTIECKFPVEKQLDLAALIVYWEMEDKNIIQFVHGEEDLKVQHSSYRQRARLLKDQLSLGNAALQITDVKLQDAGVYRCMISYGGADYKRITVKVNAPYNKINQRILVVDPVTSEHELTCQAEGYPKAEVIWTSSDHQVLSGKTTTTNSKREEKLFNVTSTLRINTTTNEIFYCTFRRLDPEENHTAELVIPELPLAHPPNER", "experiment": "PD-1/PD-L1 Binding Assay (Alphascreen)", "settings": "numeric values", "summary_of_the_method": "(§1)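 PD-1/PD-L1 binding detected by anti-6×His acceptor and streptavidin donor beads after 120 min in the dark at 25 °C. Beforehand, the two proteins were incubated 15 min at 25 °C with inhibitor at 0.015–300 nM (1% DMSO). IC50 comes from a log concentration–response curve.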", "units": {"IC50": "nM"}, "values": [
      {"smiles": "Cc1c(Nc2nccc3cc(CNCC(=O)O)cnc23)cccc1-c1cccc(-c2nc3cc(CN4CCC[C@H]4C(=O)O)c(OC(F)F)cc3o2)c1C", "note": "[Example 172, ((2-(3′-((3-(((carboxymethyl)amino)methyl)-1,7-naphthyridin-8-yl)amino)-2,2′-dimethyl-[1,1′-biphenyl]-3-yl)-6-(difluoromethoxy)benzo[d]oxazol-5-yl)methyl)-L-proline]", "IC50": 0.3},
      {"smiles": "Cc1c(Nc2nccc3cc(CN4CCCC[C@H]4C(=O)O)cnc23)cccc1-c1cccc(-c2nc3cc(CN4CCC[C@H]4C(=O)O)c(OC(F)F)cc3o2)c1C", "note": "[Example 173, (S)-1-((8-((3′-(5-(((S)-2-carboxypyrrolidin-1-yl)methyl)-6-(difluoromethoxy)benzo[d]oxazol-2-yl)-2,2′-dimethyl-[1,1′-biphenyl]-3-yl)amino)-1,7-naphthyridin-3-yl)methyl)piperidine-2-carboxylic acid]", "IC50": 0.93},
      {"smiles": "Cc1c(Nc2nccc3cc(CN4CCC(F)C4)cnc23)cccc1-c1cccc(-c2nc3cc(CN4CCC[C@H]4C(=O)O)c(OC(F)F)cc3o2)c1C", "note": "(stereo partly drawn) [Example 174, ((6-(difluoromethoxy)-2-(3′-((3-((3-fluoropyrrolidin-1-yl)methyl)-1,7-naphthyridin-8-yl)amino)-2,2′-dimethyl-[1,1′-biphenyl]-3-yl)benzo[d]oxazol-5-yl)methyl)-L-proline]", "IC50": 21},
      {"smiles": "Cc1c(Nc2nccc3cc(CN4CCOCC4)cnc23)cccc1-c1cccc(-c2nc3cc(CN4CCC[C@H]4C(=O)O)c(OC(F)F)cc3o2)c1C", "note": "[Example 176, ((6-(difluoromethoxy)-2-(2,2′-dimethyl-3′-((3-(morpholinomethyl)-1,7-naphthyridin-8-yl)amino)-[1,1′-biphenyl]-3-yl)benzo[d]oxazol-5-yl)methyl)-L-proline]", "IC50": 0.9},
      {"smiles": "Cc1c(Nc2nccc3cc(CN4CCC4)cnc23)cccc1-c1cccc(-c2nc3cc(CN4CCC[C@H]4C(=O)O)c(OC(F)F)cc3o2)c1C", "note": "[Example 177, ((2-(3′-((3-(azetidin-1-ylmethyl)-1,7-naphthyridin-8-yl)amino)-2,2′-dimethyl-[1,1′-biphenyl]-3-yl)-6-(difluoromethoxy)benzo[d]oxazol-5-yl)methyl)proline]", "IC50": 0.94},
      {"smiles": "Cc1c(Nc2nccc3cc(CN4CC(O)C4)cnc23)cccc1-c1cccc(-c2nc3cc(CN4CCC[C@H]4C(=O)O)c(OC(F)F)cc3o2)c1C", "note": "[Example 178, ((6-(difluoromethoxy)-2-(3′-((3-((3-hydroxyazetidin-1-yl)methyl)-1,7-naphthyridin-8-yl)amino)-2,2′-dimethyl-[1,1′-biphenyl]-3-yl)benzo[d]oxazol-5-yl)methyl)proline]", "IC50": 3.9}
    ]},
    {"biological_target": "PD-1/PD-L1 (Homo sapiens (Human), UniProt Q9NZQ7)", "experiment": "PD-1/PD-L1 Binding Assay (Alphascreen)", "settings": "range symbols", "summary_of_the_method": "as §1", "units": {"IC50": "nM"}, "values": [
      {"smiles": "Cc1c(-c2nc3cc(CN4CCC[C@H]4C(=O)O)c(OC(F)F)cc3o2)cccc1-c1cccc(-c2nc3cc(CN4CC(C)(CN(C)C)C4)cc(C#N)c3o2)c1C", "note": "[Example 159, ((2-(3′-(7-cyano-5-((3-((dimethylamino)methyl)-3-methylazetidin-1-yl)methyl)benzo[d]oxazol-2-yl)-2,2′-dimethyl-[1,1′-biphenyl]-3-yl)-6-(difluoromethoxy)benzo[d]oxazol-5-yl)methyl)-L-proline]", "IC50": "0.1 to 5"},
      {"smiles": "Cc1c(-c2nc3cc(CN4CCC[C@H]4C(=O)O)c(OC(F)F)cc3o2)cccc1-c1cccc(-c2nc3cc(CNCc4cn(C)cn4)cc(C#N)c3o2)c1C", "note": "[Example 160, ((2-(3′-(7-cyano-5-((((1-methyl-1H-imidazol-4-yl)methyl)amino)methyl)benzo[d]oxazol-2-yl)-2,2′-dimethyl-[1,1′-biphenyl]-3-yl)-6-(difluoromethoxy)benzo[d]oxazol-5-yl)methyl)-L-proline]", "IC50": "0.1 to 5"},
      {"smiles": "Cc1c(-c2nc3cc(CN4CCC[C@H]4C(=O)O)c(OC(F)F)cc3o2)cccc1-c1cccc(-c2nc3cc(CN4CC(C)(CN)C4)cc(C#N)c3o2)c1C", "note": "[Example 161, ((2-(3′-(5-((3-(aminomethyl)-3-methylazetidin-1-yl)methyl)-7-cyanobenzo[d]oxazol-2-yl)-2,2′-dimethyl-[1,1′-biphenyl]-3-yl)-6-(difluoromethoxy)benzo[d]oxazol-5-yl)methyl)-L-proline]", "IC50": "0.1 to 5"},
      {"smiles": "Cc1c(-c2nc3cc(CN4CCC[C@@H]4C(=O)O)c(OC(F)F)cc3o2)cccc1-c1cccc(-c2nc3cc(CN4CCC(F)C4)cc(C#N)c3o2)c1C", "note": "(stereo partly drawn) [Example 163, ((2-(3′-(7-cyano-5-((3-fluoropyrrolidin-1-yl)methyl)benzo[d]oxazol-2-yl)-2,2′-dimethyl-[1,1′-biphenyl]-3-yl)-6-(difluoromethoxy)benzo[d]oxazol-5-yl)methyl)-D-proline]", "IC50": "5 to 50"},
      {"smiles": "Cc1c(-c2nc3cc(CN4CCC[C@H]4C(=O)O)c(OC(F)F)cc3o2)cccc1-c1cccc(-c2nc3cc(CN4CCC(F)C4)cc(C(F)(F)F)c3o2)c1C", "note": "(stereo partly drawn) [Example 166, ((6-(difluoromethoxy)-2-(3′-(5-((3-fluoropyrrolidin-1-yl)methyl)-7-(trifluoromethyl)benzo[d]oxazol-2-yl)-2,2′-dimethyl-[1,1′-biphenyl]-3-yl)benzo[d]oxazol-5-yl)methyl)-L-proline]", "IC50": "5 to 50"},
      {"smiles": "Cc1c(-c2nc3cc(CN4CCC[C@H]4C(=O)O)c(OC(F)F)cc3o2)cccc1-c1cccc(-c2nc3cc(CN4CCC(C)(F)C4)cc(C#N)c3o2)c1C", "note": "(stereo partly drawn) [Example 167, ((2-(3′-(7-cyano-5-((3-fluoro-3-methylpyrrolidin-1-yl)methyl)benzo[d]oxazol-2-yl)-2,2′-dimethyl-[1,1′-biphenyl]-3-yl)-6-(difluoromethoxy)benzo[d]oxazol-5-yl)methyl)-L-proline]", "IC50": "5 to 50"},
      {"smiles": "Cc1c(-c2nc3cc(CN4CCC[C@H]4C(=O)O)c(OC(F)F)cc3o2)cccc1-c1cccc(-c2nc3cc(CN4CC[C@@H](CF)C4)cc(C#N)c3o2)c1C", "note": "[Example 168, ((2-(3′-(7-cyano-5-(((R)-3-(fluoromethyl)pyrrolidin-1-yl)methyl)benzo[d]oxazol-2-yl)-2,2′-dimethyl-[1,1′-biphenyl]-3-yl)-6-(difluoromethoxy)benzo[d]oxazol-5-yl)methyl)-L-proline]", "IC50": "0.1 to 5"},
      {"smiles": "Cc1c(-c2nc3cc(CN4CC[C@@H](C(=O)O)C4)c(OC(F)F)cc3o2)cccc1-c1cccc(-c2nc3cc(CN4CCCC4)cc(C#N)c3o2)c1C", "note": "[Example 169, (R)-1-((2-(3′-(7-cyano-5-(pyrrolidin-1-ylmethyl)benzo[d]oxazol-2-yl)-2,2′-dimethyl-[1,1′-biphenyl]-3-yl)-6-(difluoromethoxy)benzo[d]oxazol-5-yl)methyl)pyrrolidine-3-carboxylic acid]", "IC50": "0.1 to 5"},
      {"smiles": "Cc1c(-c2nc3cc(CN4CCC[C@@H]4C(=O)O)c(OC(F)F)cc3o2)cccc1-c1cccc(-c2nc3cc(CN4CC(C)(C)C4)cnc3o2)c1C", "note": "[Example 170, ((6-(difluoromethoxy)-2-(3′-(6-((3,3-dimethylazetidin-1-yl)methyl)oxazolo[5,4-b]pyridin-2-yl)-2,2′-dimethyl-[1,1′-biphenyl]-3-yl)benzo[d]oxazol-5-yl)methyl)-D-proline]", "IC50": "5 to 50"},
      {"smiles": "Cc1c(Nc2nccc3cc(CNCC4CCC(=O)N4)cnc23)cccc1-c1cccc(-c2nc3cc(CN4CCC[C@H]4C(=O)O)c(OC(F)F)cc3o2)c1C", "note": "(stereo partly shown) [Example 179, ((6-(difluoromethoxy)-2-(2,2′-dimethyl-3′-((3-((((5-oxopyrrolidin-2-yl)methyl)amino)methyl)-1,7-naphthyridin-8-yl)amino)-[1,1′-biphenyl]-3-yl)benzo[d]oxazol-5-yl)methyl)proline]", "IC50": "0.1 to 5"}
    ]}
  ]
}
